Here are results for 24 compounds from PubChem BioAssay AID248 (DTP/NCI, 2004).

The assay has as its system L1210 leukemia ip in BDF1 mice, survival T/C. Briefly: NCI In Vivo Anticancer Drug Screen. Data for tumor model L1210 Leukemia (intraperitoneal) in B6D2F1 (BDF1) mice. As to conditions: endpoint: mean survival time, higher = longer survival. In a few lines:
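Read-out is survival time, reported as the treated-group measurement over the vehicle-control measurement.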

Where [1] appears, read: dose: 50.0 mg/kg/injection, schedule: Q01DX009 (ip), vehicle: Klucel (hydroxypropylcellulose) (HPC).
Where [2] appears, read: dose: 100.0 mg/kg/injection, schedule: Q01DX009 (ip), vehicle: Klucel (hydroxypropylcellulose) (HPC).
Setting [3] is: dose: 100.0 mg/kg/injection, schedule: Q04DX003 (ip), vehicle: Klucel (hydroxypropylcellulose) (HPC).
The mark [4] stands for this setting: dose: 200.0 mg/kg/injection, schedule: Q01DX009 (ip), vehicle: Klucel (hydroxypropylcellulose) (HPC).
[5] abbreviates: dose: 200.0 mg/kg/injection, schedule: Q04DX003 (ip), vehicle: Klucel (hydroxypropylcellulose) (HPC).
[6] abbreviates: dose: 100.0 mg/kg/injection, schedule: Q01DX009 (ip), vehicle: saline with Tween-80.
Setting [7] is: dose: 100.0 mg/kg/injection, schedule: Q04DX003 (ip), vehicle: saline with Tween-80.
The mark [8] stands for this setting: dose: 200.0 mg/kg/injection, schedule: Q01DX009 (ip), vehicle: saline with Tween-80.
Where [9] appears, read: dose: 200.0 mg/kg/injection, schedule: Q04DX003 (ip), vehicle: saline with Tween-80.
Where [10] appears, read: dose: 400.0 mg/kg/injection, schedule: Q04DX003 (ip), vehicle: saline with Tween-80.
[11] abbreviates: dose: 100.0 mg/kg/injection, schedule: Q04DX002 (ip), vehicle: Klucel (hydroxypropylcellulose) (HPC).
The mark [12] stands for this setting: dose: 200.0 mg/kg/injection, schedule: Q04DX002 (ip), vehicle: Klucel (hydroxypropylcellulose) (HPC).
Where [13] appears, read: dose: 100.0 mg/kg/injection, schedule: Q01DX001 (ip), vehicle: saline.
Setting [14] is: dose: 200.0 mg/kg/injection, schedule: Q01DX001 (ip), vehicle: saline.
[15] abbreviates: dose: 100.0 mg/kg/injection, schedule: Q04DX003 (ip), vehicle: saline.
Setting [16] is: dose: 400.0 mg/kg/injection, schedule: Q01DX009 (ip), vehicle: Klucel (hydroxypropylcellulose) (HPC).

Several values for one entry are separate records, joined by “and”; a condition that tells them apart may be missing. Equal values may be shown once. Inconclusive results and toxic doses are left out.

Regarding `CC(=O)CC(=O)Oc1ccccc1OC(C)=O`, the T/C runs as follows: under setting [1], 103 % of control; under setting [2], 101 % of control; under setting [3], 100 % of control; under setting [4], 114 % of control; under setting [5], 102 % of control.
On to `Cc1ccc(S(=O)(=O)N/N=C(/c2ccccc2)c2cccs2)cc1`, for which the T/C is 102 % of control under setting [6]; 90 % of control under setting [7]; 91 % of control under setting [8]; 96 % of control under setting [9]; 96 % of control under setting [10].
Consider `S=c1cc(S)c(=S)[nH][nH]1`, for which the T/C is 98 % of control (dose: 5.0 mg/kg/injection, schedule: Q01DX001 (ip), vehicle: other); 96 % of control (dose: 10.0 mg/kg/injection, schedule: Q01DX001 (ip), vehicle: other); 96 % of control (dose: 20.0 mg/kg/injection, schedule: Q01DX001 (ip), vehicle: other).
With `CC1(C)N=C(N)N=C(N)N1c1cccc(/C=C/c2cccc([N+](=O)[O-])c2)c1`, the T/C by setting is: under setting [1], 102 % of control; under setting [2], 90 % of control; under setting [4], 106 % of control.
Take `Nc1ccc(N=Nc2cc(Cl)ccc2Cl)c(N)n1`: the T/C reads like this: (dose: 50.0 mg/kg/injection, schedule: Q01DX001 (ip), vehicle: other) 103 % of control; (dose: 100.0 mg/kg/injection, schedule: Q01DX001 (ip), vehicle: other) 86 % of control; (dose: 200.0 mg/kg/injection, schedule: Q01DX001 (ip), vehicle: other) 92 % of control; (dose: 400.0 mg/kg/injection, schedule: Q01DX001 (ip), vehicle: other) 92 % of control.
Turning to `O=C(O)c1cscc1-c1c2ccccc2cc2ccccc12`, the T/C reads like this: under setting [7], 88 % of control; under setting [9], 91 % of control; under setting [10], 88 % of control.
Turning to `CCCCN(CCCC)CC(O)c1cnc2c(Cl)cc(Cl)cc2c1Cl` (stereo not given), the T/C by setting is: under setting [6], 101 % of control; under setting [7], 100 % of control; under setting [8], 102 % of control; under setting [9], 102 % of control; under setting [10], 108 % of control.
For the compound `O=C1CC2CCCC(C1)N2CC1COc2ccccc2O1` (stereo not given), the T/C is, setting by setting: (dose: 50.0 mg/kg/injection, schedule: Q04DX002 (ip), vehicle: Klucel (hydroxypropylcellulose) (HPC)) 90 % of control; under setting [11], 90 % of control; under setting [12], 93 % of control.
Take `C/C=C/c1cc2c(c(=O)o1)C(=O)[C@@H](O)[C@H](C)O2`: the T/C (dose: 100.0 mg/kg/injection, schedule: Q01DX001 (ip), vehicle: carboxymethylcellulose (CMC)) is 92 % of control; the T/C (dose: 200.0 mg/kg/injection, schedule: Q01DX001 (ip), vehicle: carboxymethylcellulose (CMC)) was 103 % of control; the T/C (dose: 400.0 mg/kg/injection, schedule: Q01DX001 (ip), vehicle: carboxymethylcellulose (CMC)) is 94 % of control.
In the case of `NNC(=O)C1CC12CC2` (stereo not given), the T/C was 106 % of control and 109 % of control under setting [13]; 103 % of control under setting [14].
Regarding `Cc1ccc(Nc2cc(=O)[nH]c(=O)[nH]2)c(C)c1`, the T/C reads like this: (dose: 18.75 mg/kg/injection, schedule: Q01DX001 (ip), vehicle: saline with Tween-80) 97 % of control; (dose: 37.5 mg/kg/injection, schedule: Q01DX001 (ip), vehicle: saline with Tween-80) 90 % of control; (dose: 75.0 mg/kg/injection, schedule: Q01DX001 (ip), vehicle: saline with Tween-80) 90 % of control.
Take `C=CCc1ccc(OC(=O)Nc2cccc3ccccc23)c(OC)c1`: the T/C under setting [11] was 96 % of control; the T/C under setting [12] was 124 % of control; the T/C (dose: 400.0 mg/kg/injection, schedule: Q04DX002 (ip), vehicle: Klucel (hydroxypropylcellulose) (HPC)) is 93 % of control.
With `CCOC(=O)C(=O)c1c(C)[nH]c(C(=O)OCC)c1C`, the T/C is 104 % of control (dose: 25.0 mg/kg/injection, schedule: Q04DX003 (ip), vehicle: saline); 93 % of control (dose: 50.0 mg/kg/injection, schedule: Q04DX003 (ip), vehicle: saline); 95 % of control (dose: 100.0 mg/kg/injection, schedule: Q01DX001 (ip), vehicle: Klucel (hydroxypropylcellulose) (HPC)); 98 % of control under setting [15]; 97 % of control (dose: 200.0 mg/kg/injection, schedule: Q01DX001 (ip), vehicle: Klucel (hydroxypropylcellulose) (HPC)); 101 % of control (dose: 400.0 mg/kg/injection, schedule: Q01DX001 (ip), vehicle: Klucel (hydroxypropylcellulose) (HPC)).
Regarding `O=c1oc(-c2cccc(Cl)c2)nc2cc(Cl)ccc12`, the T/C under setting [2] is 104 % of control, the T/C under setting [4] was 116 % of control and the T/C under setting [16] was 115 % of control.
With `[Cl][Sn]([Cl])([Cl])[Cl]`, the T/C under setting [15] is 95 % of control.
For `CCCCCCCCOc1ccc(C=Nc2ccc(C(=O)OCC)cc2)cc1`, the T/C runs as follows: under setting [2], 87 % of control; under setting [4], 92 % of control; under setting [16], 94 % of control.
With `COC(C(C)C)[CH]1[Hg][O]C1=O` (stereo not given), the T/C by setting is: (dose: 0.5 mg/kg/injection, schedule: Q01DX001 (ip), vehicle: steriod suspending solution) 103 % of control; (dose: 1.0 mg/kg/injection, schedule: Q01DX001 (ip), vehicle: steriod suspending solution) 108 % of control; (dose: 2.0 mg/kg/injection, schedule: Q01DX001 (ip), vehicle: steriod suspending solution) 111 % of control.
Consider `CC[C@@](O)(C(=O)NC)c1cc2n(c(=O)c1CO)Cc1cc3ccccc3nc1-2`, for which the T/C runs as follows: (dose: 2.3 mg/kg/injection, schedule: Q01DX015 (ip), vehicle: saline) 155 % of control; (dose: 3.5 mg/kg/injection, schedule: Q01DX015 (ip), vehicle: saline) 172 % of control; (dose: 4.0 mg/kg/injection, schedule: Q01DX001 (ip), vehicle: saline) 110 % of control; (dose: 5.3 mg/kg/injection, schedule: Q01DX015 (ip), vehicle: saline) 102 % of control.
For the compound `COC(=O)c1ccccc1C=O`, the T/C runs as follows: (dose: 100.0 mg/kg/injection, schedule: Q01DX001 (ip), vehicle: saline with Tween-80) 102 % of control; (dose: 200.0 mg/kg/injection, schedule: Q01DX001 (ip), vehicle: saline with Tween-80) 107 % of control.
As to `CC[C@@H]1O[C@@H]([C@@H]2CC[C@](O)([C@]3(C)CC[C@@H]([C@@H](C)[C@@]4(O)CC[C@H](C)[C@@H](C[C@@]5(O)O[C@@H]([C@@H](C)[C@H](O)C[C@H]6CC[C@H](C)[C@@H]([C@@H](C)C(=O)O)O6)CC[C@@H]5C)O4)O3)O2)CC[C@@]1(C)O`, the T/C is 93 % of control (dose: 0.09 mg/kg/injection, schedule: Q04DX002 (ip), vehicle: saline); 90 % of control (dose: 0.19 mg/kg/injection, schedule: Q04DX002 (ip), vehicle: saline); 87 % of control (dose: 0.39 mg/kg/injection, schedule: Q04DX002 (ip), vehicle: saline).
Turning to `NC(=O)C1C2C=CC(O2)C1C(N)=O` (stereo not given), the T/C is 89 % of control (dose: 100.0 mg/kg/injection, schedule: Q04DX002 (ip), vehicle: saline) and 92 % of control (dose: 200.0 mg/kg/injection, schedule: Q04DX002 (ip), vehicle: saline).
As for `ICC12CC=CCC1(CI)CCCC2` (stereo not given), the T/C (dose: 150.0 mg/kg/injection, schedule: Q04DX002 (ip), vehicle: Klucel (hydroxypropylcellulose) (HPC)) was 105 % of control and the T/C (dose: 300.0 mg/kg/injection, schedule: Q04DX002 (ip), vehicle: Klucel (hydroxypropylcellulose) (HPC)) was 97 % of control.
In the case of `COc1ncc(F)c(OC)n1`, the T/C under setting [13] is 100 % of control; the T/C under setting [14] is 96 % of control; the T/C (dose: 400.0 mg/kg/injection, schedule: Q01DX001 (ip), vehicle: saline) was 91 % of control.
In the case of `CCN(CC)C(=O)c1ccc(C(Cl)(Cl)Cl)cc1`, the T/C (dose: 75.0 mg/kg/injection, schedule: Q01DX009 (ip), vehicle: saline sonified) was 91 % of control; the T/C under setting [3] was 87 % of control; the T/C (dose: 150.0 mg/kg/injection, schedule: Q01DX009 (ip), vehicle: saline sonified) is 91 % of control; the T/C under setting [5] was 89 % of control; the T/C (dose: 300.0 mg/kg/injection, schedule: Q01DX009 (ip), vehicle: saline sonified) was 87 % of control; the T/C (dose: 400.0 mg/kg/injection, schedule: Q04DX003 (ip), vehicle: Klucel (hydroxypropylcellulose) (HPC)) is 91 % of control.
